{"source": "patent US20120309821A1", "about": "“Use of epigallocatechin-3-gallate for immune regulation” (NATIONAL DEFENSE MEDICAL CENTER, priority 2011, published 2012)", "system": "superoxide anion", "experiment": "Superoxide anion (ROS) levels in serum, urine and kidney", "assay_type": "in vivo, mouse", "settings": "120 mg/kg by gavage daily, week 34", "experimental": "Female NZB/W F1 mice were purchased from the Animal Center of the National Taiwan University (Taipei, Taiwan, ROC) and, at 12 weeks of age, were divided into two groups, one of which was given normal saline and served as the disease control, while the other was given 120 mg/kg body weight of EGCG (Ryss Lab, Inc., CA, USA) (this dose is a slight modification of those used in previous in vivo studies) by gavage daily till sacrificed at 34-weeks-old. 8-Week-old NZB/W F1 female mice (prior to onset of autoantibody production) were used as normal controls. Urine samples were collected in metabolic cages every 2 weeks and urine protein levels were measured, and serum samples were used to measure serum levels of blood urea nitrogen (BUN) and creatinine (Cr) as described previously (Ka, S. M. et al. Decoy receptor 3 ameliorates an autoimmune crescentic glomerulonephritis model in mice. J Am Soc Nephrol 18:2473-2485; 2007). All animal experiments were performed upon the ethical approval of the Institutional Animal Care and Use Committee of the National Defense Medical Center, Taiwan and according to the ethical rules in the NIH Guide for the Care and Use of Laboratory Animals. Kidney in situ superoxide anion production was determined by dihydroethidium (DHE) labeling. Fluorescent images were quantified by counting the percentage of positive nuclei in the total nuclei per kidney cross-section. Superoxide anion levels in serum and kidney tissues were measured as described previously and the results expressed as reactive luminescence units (RLU) per 15 min per milligram dry weight (i.e., RLU/15 min/mg dry weight).", "data": [{"substance": "Epigallocatechin-3-gallate [EGCG]", "values": [{"measurement": "levels of superoxide anion in the kidney", "setting": "kidney", "result": "inhibited"}, {"measurement": "superoxide anion levels in the serum", "setting": "serum", "result": "decreased by EGCG treatment to levels similar to those in normal control mice"}, {"measurement": "superoxide anion levels in the urine", "setting": "urine", "result": "decreased by EGCG treatment to levels similar to those in normal control mice"}]}]}
